Numbers after ± are expanded uncertainties.
Details: Liquid; Visual observation in an unstirred cell

Structure (SMILES)	Critical temperature [K]
CCCCCCC [heptane]	540.6 ± 2.8
CCCCCCCC [octane]	568.8 ± 2.8
Fc1ccccc1 [fluorobenzene]	557.3 ± 2.8
Clc1ccccc1Cl [1,2-dichlorobenzene]	698.8 ± 2.8
c1ccccc1 [benzene]	562.2 ± 2.8

Second part, the compound after the results:

Critical temperature [K]	Structure (SMILES)
507.4 ± 2.8	CCCCCC [hexane]
489.4 ± 2.8	CCC(C)(C)C [2,2-dimethylbutane]
544 ± 2.8	CC(C)CC(C)(C)C [2,2,4-trimethylpentane]
